The test system of one test is DCs. The test can be described thus: Presentation of biotin-conjugated GPA-derived peptides on DCs, fluorescence-labeled streptavidin, flow cytometry. The test is classed as cell-based, human. The method, then:
DCs were loaded with the biotin-conjugated peptides GPA1-9(3TF), GPA9-25(4TF), GPA9-25(6TF), GPA26-43(2TF), GPA34-55(4TF), GPA41-55(3TF), GPA45-55(2TF), GPA48-55(1TF) and GPA48-63(1TF). Presentation was determined by fluorescence-labeled streptavidin. The subpopulations of CD80+CD209+, CD80+CD209− and CD80−CD209− mature DCs were analyzed separately. Mean percentages+SD of one experiment performed in duplicates are shown.
DCs were loaded with the biotin-conjugated peptides. Presentation was determined by fluorescence-labeled streptavidin. The subpopulations CD80+CD209+, CD80+CD209- and CD80−CD209− mature DCs were analyzed separately. Mean percentages+SD of one experiment performed in triplicates are shown.
For that reason the GPA-derived TF-α glycosylated peptides GPA1-9(3TF), GPA9-25(4TF), GPA9-25(6TF), GPA26-43(2TF), GPA34-55(4TF), GPA41-55(3TF), GPA45-55(2TF), GPA48-55(1TF) and GPA48-63(1TF) were employed.
By using four different glycosylation variants of GPA26-43, it was aimed to investigate the effect of TFα-glycosylation on the presentation in more detail.
(In flow cytometry, cells or beads pass a laser one at a time.)

The subject of test [1] is dendritic cells. The test can be described thus: Effect of antigen processing inhibitors on presentation of TFα derived from aGPA (flow cytometry, Nemod-TF1). It counts as cell-based, human. The conditions noted are these: DCs treated with inhibitor of lysosomal acidification prior to loading with aGPA. How it is done:
DCs were pretreated with indicated concentrations of chloroquine (a) and ammonium chloride (b) before aGPA was added. Presentation of TFα was analyzed by flow cytometry using Nemod-TF1. Data are presented as the percentage of the relative presentation which was calculated according to the following formula: (percentage of positive cells incubated with antigen processing inhibitors)/(percentage of positive cells of untreated cells)×(100)). The means of one experiment performed in duplicates are shown.
In order to characterize the processing pathway of aGPA, dendritic cells were treated with inhibitors of lysosomal acidification, chloroquine and ammonium chloride (MHC class II processing) prior to loading. […] These findings verify that aGPA is processed in the cell before TFα is presented on the cell surface.

The test system of test [2] is TFα-specific T cells. In words: IFN-γ ELISPOT, restimulation of B. ovatus-primed T cells with peptide-loaded DCs. As to conditions: T cells primed with TFα-positive B. ovatus strain. It counts as cell-based, human. The method, then: PBMCs of a healthy donor were primed with DCs loaded with TFα positive B. ovatus (BO+). Restimulation with GPA26-43(2TF) and GPA34-55(4TF) was analyzed by IFN-γ ELISPOT. The mean numbers of IFN-γ+spots+SEM of one experiment performed in triplicates is shown.
In order to analyze whether DCs loaded with peptide GPA26-43(2TF) or GPA34-55(4TF) can activate TFα-specific T cells, they were used for restimulation of T cells primed with a TFα-positive B. ovatus strain. Restimulation was detected by an IFN-γ ELISPOT assay. […] Since TFα is the only overlapping structure between the TFα-positive B. ovatus strain and the TFα-glycosylated GPA-derived peptides GPA26-43(2TF) and GPA34-55(4TF), it is obvious that the restimulated T cells were TFα-specific. […] This immune response, when elicited in a human being, can protect against cells carrying said carbohydrate structure. In the case of tumor-associated carbohydrate antigens such as TFα, vaccination against and treatment of cancer comprising cells carrying said carbohydrate antigen is possible with these glycosylated glycophorin peptides. Therefore, based on this experiment, GPA-derived TF-α glycosylated peptides are proposed for the use of treating or preventing cancer in human.

The subject of test [3] is TFα-specific T cells. The test can be described thus: IFN-γ ELISPOT, second restimulation of TFα-specific T cells with aGPA- or GPA-loaded dendritic cells. The test is classed as cell-based. As to conditions: T cells primed with TFα positive B. ovatus strain and restimulated with lysate of TFα positive human cell line. The method, then: PBMCs of a healthy donor were twice primed with DCs loaded with a TFα positive B. ovatus strain (BO+). Restimulation with DCs loaded with lysate of a TFα positive (HC+) or TFα negative (HC−) human cell line was analyzed by IFN-γ ELISPOT. T cells restimulated with TFα positive cells were further cultivated and restimulated in a second round with aGPA- and GPA-loaded DCs, which was analyzed by IFN-γ ELISPOT. The mean numbers of IFN-γ+spots+SEM of one experiment performed in triplicates (1st restimulation) or of four replicates (2nd restimulation) are shown. IFN-γ+spots of PBMCs without restimulation were subtracted. Statistical analysis was performed using 1 way ANOVA (***: P<0.001).
In order to analyze whether asialoglycophorin A (aGPA)-loaded dendritic cells (DCs) have the potential to activate TFα-specific T cells, a T cell culture, which was primed with a TFα positive B. ovatus strain and restimulated with lysate of a TFα positive human cell line, was restimulated in a second round with dendritic cells loaded with either aGPA or glycophorin A (GPA).

Test [4] deals with dendritic cells. The test can be described thus: Flow cytometry of TFα presentation on dendritic cells loaded with aGPA or GPA (Nemod-TF1, Nemod-TF2). It counts as cell-based, human. How it is done: GPA- and aGPA-loaded cells were stained with Nemod-TF1 and Nemod-TF2 and analyzed by flow cytometry. The subpopulations of CD80+CD209+, CD80+CD209− and CD80−CD209− cells were analyzed separately. The mean percentages of positive cells+SD of one experiment performed in duplicates are shown.
DCs were loaded with aGPA and GPA for indicated time periods. Presentation of TFα was analyzed on the subpopulations of CD80+CD209+ (a), CD80+CD209− (b) and CD80−CD209− (c) DCs by flow cytometry using Nemod-TF1. Data are presented as mean percentage of positive cells±SD of one experiment performed in duplicates.
In order to analyze the antigen presentation of aGPA in more detail, dendritic cells loaded with aGPA and GPA were analyzed by flow cytometry using anti-TFα antibodies and for co-staining anti-CD80 and anti-CD209 antibodies.
In order to test whether aGPA is unspecifically attached to the cell surface of DCs, aGPA was added 10 min prior to the analysis of surface presentation with the TFα-specific antibody Nemod-TF1 and compared to TFα-presentation after loading times of 1 and 2 d. […] This is important since the presentation on MHC proteins is crucial for activation of TF-α specific T cells.

From patent publication US20160304577A1, “GLYCOSYLATED GLYCOPHORIN PEPTIDES” (GLYCOTOPE GMBH, priority 2013, published 2016) come the findings set out here.

Entries after “also recorded” stand apart in the source; their conditions may differ. No end group written: not given here.

For “GPA1-9(3TF): biotin-conjugated GPA-derived TF-α glycosylated peptide (SSTTGVAMH; also: 3 TF-α glycans, sites not given here, biotin-conjugated, site not given here)”, in the test on DCs, the “presentation of peptide on DCs (percentage of positive cells)” value was “strongest presentation on DCs”. For “GPA26-43(1TFaa37): glycosylation variant of GPA26-43, biotin-conjugated peptide (NDTHKRDTYAAT(TF‑α)PRAHEV; also: biotin-conjugated, site not given here)”, the “presentation of peptide on DCs (percentage of positive cells)” value in the test with DCs was “less effectively presented than GPA26-43(1TFaa33) and GPA26-43, but more effectively than GPA26-43(2TF)”.

As for “GPA26-43(1TFaa33): glycosylation variant of GPA26-43, biotin-conjugated peptide (NDTHKRDT(TF‑α)YAATPRAHEV; also: biotin-conjugated, site not given here)”, the “presentation of peptide on DCs (percentage of positive cells)” value with DCs was “presented at a similar percentage”. For the molecule `CCN(CC)CCCC(C)Nc1ccnc2cc(Cl)ccc12` (stereo not shown) [chloroquine], the “effect on presentation of TFα derived from aGPA” value with dendritic cells [1] is listed as “blocked the presentation of TFα”.

Turning to `Cl.N` [ammonium chloride], the “effect on presentation of TFα derived from aGPA” value in the test with dendritic cells [1] is “blocked the presentation of TFα”. “GPA48-63(1TF): biotin-conjugated GPA-derived TF-α glycosylated peptide (VRTVYPPEEETGERVQ; also: 1 TF-α glycan, site not given here, biotin-conjugated, site not given here)”: the “presentation of peptide on DCs (percentage of positive cells)” value with DCs is reported as “strongest presentation on DCs”. For the molecule “GPA26-43(2TF): biotin-conjugated GPA-derived TF-α glycosylated peptide (NDTHKRDTYAATPRAHEV; also: 2 TF-α glycans, sites not given here, biotin-conjugated, site not given here)”, in the test on DCs, the “presentation of peptide on DCs (percentage of positive cells)” value is reported as “strongest presentation on DCs; also recorded: better presentation on DCs than GPA34-55(4TF); also recorded: found to be presented on DCs”. Moreover, the “activation of T cells on restimulation with peptide-loaded DCs (IFN-γ ELISPOT)” value with TFα-specific T cells [2] is on record as “stronger activation of T cells compared to DCs loaded with GPA34-55(4TF)”. For the molecule “GPA26-43: the unglycosylated GPA26-43, biotin-conjugated peptide (NDTHKRDTYAATPRAHEV; also: biotin-conjugated, site not given here) [reference compound]”, the “presentation of peptide on DCs (percentage of positive cells)” value with DCs was “presented at a similar percentage”.

B1: asialoglycophorin A (protein)
chain: SSTTGVAMHTSTSSSVTKSYISSQTNDTHKRDTYAATPRAHEVSEISVRTVYPPEEETGERVQLAHHFSEPEITLIIFGVMAGVIGTILLISTGIRRLIKKSPSDVKPLPSPDTDVPLSSVEIENPETSDQ
notes: asialoglycophorin A (aGPA)
As to B1, the “activation of T cells on restimulation with loaded dendritic cells (IFN-γ ELISPOT)” value in the test with TFα-specific T cells [3] was “visible activation of T cells”. The “percentage of Nemod-TF1- and Nemod-TF2-positive cells (TFα presentation) on loaded DCs” value with dendritic cells [4] (CD80+CD209+, CD80+CD209− and CD80−CD209− DCs) is “increased percentage of Nemod-TF1- and Nemod-TF2-positive cells compared to GPA-loaded cells”. Moreover, the “TFα presentation on DCs when added just before staining (unspecific attachment)” value in the test with dendritic cells [4] (added 10 min prior to analysis with Nemod-TF1, compared to loading times of 1 and 2 d, all three DC subpopulations) was “no presentation was found”.

B2: glycophorin A (protein)
chain: B1 chain
notes: glycophorin A (GPA)
Regarding B2, the “activation of T cells on restimulation with loaded dendritic cells (IFN-γ ELISPOT)” value with TFα-specific T cells [3] is “almost no restimulation”.
